Data: patent US20120295838A1, “Selective poly-substituted glycine antibiotics and related compositions” (priority 2008, published 2012)
Numbered stars: 1 amine (or outer) side, 2 acyl side, 3 side chain; on linkers, the order of the positions; unused ones are H or OH. Square brackets hold non-standard residues; d marks the D form. Peptide text beside a SMILES is read from it. Gly(N-CH2CH2-imidazol-4-yl) = O=C(O)CNCCc1c[nH]cn1; X1 = CC(C)[C@H](C)N(CC(=O)[*:2])[*:1]; Nspe = C[C@H](NCC(=O)O)c1ccccc1; Nlys = NCCCCNCC(=O)O

How the values were obtained:
[1] = MTS assay, NIH 3T3 cells; format: cell-based, mouse; details: mouse, NIH 3T3 fibroblast cells
Procedure, shortened: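 NIH/3T3 cells seeded at 5,000 per well, grown a day in DMEM with 10% FBS, then washed and exposed to serially diluted peptoid in HBSS together with MTS reagent. Absorbance at 490 nm read after 3 hours at 37 °C as a measure of metabolic activity; mean of six replicates.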

[2] = tested on: E. coli JM109; format: cell-based; details: Table 1; SR = (HD10)/(E. coli MIC); listed as 1-/Vhis6,12
From the text: An initial set of 15 ampetoid analogs was synthesized to determine whether peptoids are affected by structural and sequence modifications in a manner consistent with AMP activities. The designs for ampetoids in this library were derived from two antibacterial and selective amphipathic dodecamers, 1 and 2. Peptoid 1 [H-(Nlys-Nspe-Nspe)4-NH2] is composed of 2/3 Nspe, the peptoid analog of phenylalanine, and 1/3 Mys, the peptoid analog of lysine (see FIG. 1 for the structures of representative peptoid monomers and corresponding N-substituents). Peptoid 2 [H-(Mys-Nssb-Nspe)4-NH2] contains 1/3 isoleucine-like Nssb monomers in place of Nspe. The variant sequences were designed to effect changes in chirality, length, hydrophobicity, charge, and amphipathicity. All of these compounds were tested for antibacterial activity against representative BSL1 Gram-negative (E. coli JM109) and Gram-positive (B. subtilis BR151) bacterial strains. As an initial measure of selectivity, the lytic activity of the peptoids was determined against human erythrocytes. Table 1 summarizes the sequences synthesized, the solvent composition at RP-HPLC elution as a relative measure of molecular hydrophobicity, and antibacterial and hemolytic activities.
Antibacterial assays. MICs were determined according to CLSI M7-A6 protocols in a 96-well microtiter plate. […]

[3] = tested on: A549 lung epithelial cells; experiment: MTS assay, A549 cells
Procedure: The biocompatibility of selected oligomers with A549 lung epithelial cells was evaluated using the MTS [3-(4,5-dimethylthiazol-2-yl)-5-(3-carboxymethoxyphenyl)-2-(4-sulfophenyl)-2H-tetrazolium] assay.
MTS Assays. A549 carcinoma-derived lung epithelial cells (ATTC CCL-185) were cultured in Ham's F12K media (ATTC, Manassas, Va.). A peptoid solution plate (100 μL/well) was prepared by serial dilution of aqueous peptoid stocks in media. Peptoid solutions were transferred onto a 96-well plate of day-old cell monolayers containing 100 μL/well media with 5000 cells/well. MTS reagent (Promega Corporation, Madison, Wis.) (40 μL/well) was added to each well and the plate was incubated at 37° C. for 3 h, after which absorbance at 490 nm was determined. Percent inhibition was determined as [1−(A−Atest blank)/(Acontrol−Ablank)]×100, where A is the absorbance of the test well and Acontrol the average absorbance of wells with cells exposed to media and MTS (no peptoid). Atest blank (media, MTS, and peptoid) and Ablank (media and MTS) were background absorbances measured in the absence of cells. The average of six replicates are reported, and error bars show one standard deviation.

[4] = tested on: Staphyloccus aureus (ATCC #25923); experiment: Murine intraperitoneal infection model; format: in vivo; details: mouse, S. aureus I.P.
Procedure: Using a murine peritoneal injection mouse model, the ability of peptoids to treat infection was evaluated in vivo. The results from three separate studies of peptoid 1 and two of peptoid 1-Nhis6,12 against saline treated controls are shown in FIG. 7. The horizontal line represents the geometric mean of each population.
Murine intraperitoneal infection model. Bacteria was prepared by inoculating 5 mL of MHB with a single colony of Staphyloccus aureus (ATCC #25923) from a freshly streaked plate and grown overnight at 37 C. The following morning, the bacteria was subcultured by diluting 1/3 in MHB and grown for approximately 1 .5 hours. The bacteria were then diluted 10-fold in a 5% mucin in PBS solution and thoroughly mixed. A sample was reserved to later determine the amount of bacteria the mice received.
Mice were weighed, marked, and injected I.P. with 200 uL of S. aureus inoculum. Four hours post infection, mice were treated I.P. with 4 mg/kg peptoid (˜100 ug per mouse). The infection is allowed to proceed overnight. Mice were euthanized by CO2 asphyxiation after 24 hours, and the peritoneal cavity was exposed and lavaged with 5 mL PBS. The lavage was mixed and reserved on ice until plating. The lavages were diluted to 10^−5 (in1/10 increments) in PBS, and all dilutions were plated onto MH agar, in duplicate. 50 uL of lavage was spot plated, allowed to dry, and incubated overnight at 37° C. Colonies were counted the following day, and the CFU/ml of each sample was calculated. Plates that had too many colonies to count were assigned an arbitrary number of 1000 colonies.

SMILES | CC50 at 3 h [1] [µM] | Selectivity ratio (SR) [2] | ID10 relative to that of pexiganan [3] [times] | bacterial counts from the peritoneal lavage ([4]; 4 mg/kg peptoid I.P. four hours post infection, 24 hours, vs saline treated controls) | mice that died prematurely during the exposure period ([4]; 4 mg/kg peptoid I.P., eleven mice for 1-Nhis6,12)
CC(C)[C@H](C)N(CC(=O)N(CC(=O)N(CCCCN)CC(=O)N(CC(=O)N(CC(=O)N(CCCCN)CC(=O)N(CC(=O)N(CC(=O)N(CCCCN)CC(=O)N(CC(=O)N(CC(N)=O)[C@@H](C)c1ccccc1)[C@@H](C)C(C)C)[C@@H](C)c1ccccc1)[C@@H](C)C(C)C)[C@@H](C)c1ccccc1)[C@@H](C)C(C)C)[C@@H](C)c1ccccc1)C(=O)CNCCCCN [1-Nsdp2,5,8,11, H-(Nlys-Nsdp-Nspe)4-NH2] (H-[Nlys][X1][Nspe][Nlys][X1][Nspe][Nlys][X1][Nspe][Nlys][X1][Nspe]-NH2) | 20 |  |  |  | 
C[C@@H](c1ccccc1)N(CC(=O)N(CCc1cnc[nH]1)CC(=O)N(CCCCN)CC(=O)N(CC(=O)N(CC(=O)N(CCCCN)CC(=O)N(CC(=O)N(CCc1cnc[nH]1)CC(N)=O)[C@@H](C)c1ccccc1)[C@@H](C)c1ccccc1)[C@@H](C)c1ccccc1)C(=O)CN(CCCCN)C(=O)CN(C(=O)CN(C(=O)CNCCCCN)[C@@H](C)c1ccccc1)[C@@H](C)c1ccccc1 [1-Nhis6,12, H-(Nlys-Nspe-Nspe-Nlys-Nspe-Nhis)2-NH2] (H-[Nlys][Nspe][Nspe][Nlys][Nspe][Gly(N-CH2CH2-imidazol-4-yl)][Nlys][Nspe][Nspe][Nlys][Nspe][Gly(N-CH2CH2-imidazol-4-yl)]-NH2) |  | > 31 | 20 | not reduced | eight
